Measurements: PMC12717519, “Chemical clues to infection: A pilot study on the differential secondary metabolite production during the life cycle of selected Cordyceps species” (IMA Fungus, 2025)
Values after ≈ are worked out from the molar mass of the structure shown. Where two headings read alike, the source gives them in different places.

Experiments:
Assay type in all cases: cell-based
[1] = system: Mycobacterium smegmatis (ATCC 700084); assay: MIC serial dilution assay; conditions: serial dilution in 96-well microtiter plates; tested up to 67 µg/mL
Protocol: (§1) Serial dilution assays were performed in 96-well microtiter plates to determine the minimum inhibitory concentrations (MICs) against a panel of yeasts, filamentous fungi, and bacteria, as well as the half-maximal inhibitory concentrations (IC50) against human cell lines, following our previously described protocol ([Charria-Girón et al. 2023]).

[2] = system: Candida albicans (DSM 1665); assay: MIC serial dilution assay; conditions: serial dilution in 96-well microtiter plates; tested up to 67 µg/mL
Protocol: as §1

[3] = system: Mucor hiemalis (DSM 2656); assay: MIC serial dilution assay; conditions: serial dilution in 96-well microtiter plates; tested up to 67 µg/mL
Protocol: as §1

[4] = system: Rhodotorula glutinis (DSM 10134); assay: MIC serial dilution assay; conditions: serial dilution in 96-well microtiter plates; tested up to 67 µg/mL
Protocol: as §1

[5] = system: Schizosaccharomyces pombe (DSM 70572); assay: MIC serial dilution assay; conditions: serial dilution in 96-well microtiter plates; tested up to 67 µg/mL
Protocol: as §1

[6] = system: Wickerhamomyces anomalus (DSM 6766); assay: MIC serial dilution assay; conditions: serial dilution in 96-well microtiter plates; tested up to 67 µg/mL
Protocol: as §1

[7] = system: Bacillus subtilis (DSM 10); assay: microbe, parasite or virus in culture; conditions: serial dilution in 96-well microtiter plates, tested up to 67 µg/mL
Protocol: as §1

[8] = system: Staphylococcus aureus (DSM 346); assay: microbe, parasite or virus in culture; conditions: serial dilution in 96-well microtiter plates; tested up to 67 µg/mL
Protocol: as §1

[9] = system: Escherichia coli (DSM 1116); assay: MIC serial dilution assay; conditions: serial dilution in 96-well microtiter plates; tested up to 67 µg/mL
Protocol: as §1

[10] = system: Pseudomonas aeruginosa (PA14); assay: MIC serial dilution assay; conditions: serial dilution in 96-well microtiter plates; tested up to 67 µg/mL
Protocol: as §1

Mouse fibroblast (L929) = assay: Cytotoxicity assay; conditions: serial dilution in 96-well plates
[11] = system: Human endocervival adenocarcinoma (KB3.1); assay: cells; conditions: KB3.1; serial dilution in 96-well plates; read-out: IC50
Protocol: as §1

[12] = system: Acinetobacter baumannii (DSM 30008); assay: MIC serial dilution assay; conditions: serial dilution in 96-well microtiter plates; tested up to 67 µg/mL
Protocol: as §1

[13] = system: Chromobacterium violaceum (DSM 30191); assay: MIC serial dilution assay; conditions: serial dilution in 96-well microtiter plates; tested up to 67 µg/mL
Protocol: as §1

Compound	MIC [1]	MIC [2]	MIC [3]	MIC [4]	MIC [5]	MIC [6]	MIC ([7]; Bacillus subtilis, DSM10, read-out: MIC)	MIC [7]	MIC [8]	MIC [9]	MIC [10]	IC50 (Mouse fibroblast (L929))	IC50 [11]	MIC [12]	MIC [13]
NC[C@H]1O[C@H](O[C@H]2[C@H](O)[C@@H](O[C@H]3O[C@H](CO)[C@@H](O)[C@H](N)[C@H]3O)[C@H](N)C[C@@H]2N)[C@H](O)[C@@H](O)[C@@H]1O [kanamycin, reference compound]	1.70^K µg/mL	–	–	–	–	–	–	–	–	–	–	–	–	–	–
C[C@@H]1[C@H](O)[C@@H](C)/C=C/C=C/CC/C=C/C=C/C=C/C=C/C(O[C@H]2O[C@H](C)[C@@H](O)[C@H](N)[C@@H]2O)CC2O[C@](O)(CC(O)C(O)CCC(O)CC(O)CC(O)CC(=O)O[C@H]1C)CC(O)C2C(=O)O (some centres unmarked) [nystatin, reference compound]	–	8.3^N µg/mL	8.30^N µg/mL	4.20^N µg/mL	8.30^N µg/mL	16.6^N µg/mL	–	–	–	–	–	–	–	–	–
CN(C)[C@@H]1C(O)=C(C(N)=O)C(=O)[C@@]2(O)C(O)=C3C(=O)c4c(O)cccc4[C@@](C)(O)[C@H]3[C@H](O)[C@@H]12 [oxytetracycline, reference compound]	–	–	–	–	–	–	16.6 mg/L (≈ 36.1 µM)	–	–	–	–	–	–	–	–
beauveriolide L [Compound 6]	n.i. (No inhibition up to 67 µg/mL)	n.i. (No inhibition up to 67 µg/mL)	n.i. (No inhibition up to 67 µg/mL)	–	–	–	–	n.i. (No inhibition up to 67 µg/mL)	n.i. (No inhibition up to 67 µg/mL)	n.i. (No inhibition up to 67 µg/mL)	n.i. (No inhibition up to 67 µg/mL)	> 36.5 µM	> 36.5 µM	–	–
cyclo-((S)-Pro-(R)-Ile) [Compound 9]	n.i. (No inhibition up to 67 µg/mL)	n.i. (No inhibition up to 67 µg/mL)	n.i. (No inhibition up to 67 µg/mL)	n.i. (No inhibition up to 67 µg/mL)	n.i. (No inhibition up to 67 µg/mL)	n.i. (No inhibition up to 67 µg/mL)	–	n.i. (No inhibition up to 67 µg/mL)	n.i. (No inhibition up to 67 µg/mL)	n.i. (No inhibition up to 67 µg/mL)	n.i. (No inhibition up to 67 µg/mL)	> 36.5 µM	> 36.5 µM	n.i. (No inhibition up to 67 µg/mL)	n.i. (No inhibition up to 67 µg/mL)
cyclo-((S)-Pro-(R)-Leu) [Compound 8]	n.i. (No inhibition up to 67 µg/mL)	n.i. (No inhibition up to 67 µg/mL)	n.i. (No inhibition up to 67 µg/mL)	n.i. (No inhibition up to 67 µg/mL)	n.i. (No inhibition up to 67 µg/mL)	n.i. (No inhibition up to 67 µg/mL)	–	n.i. (No inhibition up to 67 µg/mL)	n.i. (No inhibition up to 67 µg/mL)	n.i. (No inhibition up to 67 µg/mL)	n.i. (No inhibition up to 67 µg/mL)	> 36.5 µM	> 36.5 µM	n.i. (No inhibition up to 67 µg/mL)	n.i. (No inhibition up to 67 µg/mL)
cyclo-((S)-Val-(R)-Val) [Compound 10]	n.i. (No inhibition up to 67 µg/mL)	n.i. (No inhibition up to 67 µg/mL)	n.i. (No inhibition up to 67 µg/mL)	–	–	–	–	n.i. (No inhibition up to 67 µg/mL)	n.i. (No inhibition up to 67 µg/mL)	n.i. (No inhibition up to 67 µg/mL)	n.i. (No inhibition up to 67 µg/mL)	> 36.5 µM	> 36.5 µM	–	–
